Where two headings read alike, the source gives them in different places.
Key:
[1] = tested on: Trichophyton mentagrophytes; test: Antifungal susceptibility testing, broth dilution (MIC/MFC); type: cell-based; conditions: in words
Description: Specifically, disclosed compounds were evaluated alongside commercially available microtubulin inhibitors as well as recognized antifungal agents. […].
(§1) Microorganisms against which these compounds were tested included: Candida albicans, Candida glabrata, Aspergillus fumigatus, Trichophyton rubrum, Trichophyton mentagrophytes, Epidermophyton floccosum. With the exception of Candida glabrata (one isolate), two isolates of each species were tested.
Drug concentrations were 0.03-16 μg/ml for the investigational compounds, 0.015-8 μg/ml for itraconazole and griseofulvin.
The minimum lethal concentration (MLC) was determined by plating […] from the MIC concentration and each concentration above the MIC. […] When a MIC was obtained, a minimum fungicidal concentration (MFC) was determined to assess the fungistatic/fungicidal nature of the compound. […] The compound is scored as fungistatic if the cells are able to resume growth and fungicidal if no regrowth is possible because the compound had killed the organisms.

Aspergillus fumigatus = test: as above; type: cell-based; conditions: Aspergillus fumigatus, read-out: MIC
Description: (§2) Specifically, disclosed compounds were evaluated alongside commercially available microtubulin inhibitors as well as recognized antifungal agents.
as §1
(§3) The minimum lethal concentration (MLC) was determined by plating […] from the MIC concentration and each concentration above the MIC. […] When a MIC was obtained, a minimum fungicidal concentration (MFC) was determined to assess the fungistatic/fungicidal nature of the compound.

Candida albicans = test: as above; type: cell-based; conditions: Candida albicans; C. albicans 90028; read-out: MIC
Description: as §2, §1, §3

Candida glabrata = test: as above; type: cell-based; conditions: Nakaseomyces glabratus; C. glabrata; read-out: MIC
Description: as §2, §1, §3

Trichophyton rubrum = test: as above; type: cell-based; conditions: in words
Description: as §2, §1, §3

HT-29 human colon cells = test: Tumor cytotoxicity assay, resazurin fluorescence, 48 h (Example 6); type: cell-based; conditions: Homo sapiens
[2] = tested on: P388 murine leukemia cells; test: Cytotoxic effect in P388 cells; type: cell-based; conditions: Mus musculus, P388, read-out: IC50 (nM) P-388; Table 2
Source text: The cytotoxic effects of phenylahistin, dehydrophenylahistin and various derivatives of dehydrophenylahistin were examined in P388 murine leukemia cells, HT-29 human colon cells, and PC-3 prostatic adenocarcinoma cells.

[3] = tested on: HL-60 human acute promyelocytic leukemia cells; test: Cell growth inhibition assay, resazurin (Example 11); type: cell-based; conditions: mean values of two independent experiments
Description: (§4) Human uterine sarcoma (MES-SA; CRL-1976), its multidrug resistant derivative (MES-SA/Dx5; CRL-1977), human acute promyelocytic leukemia cells (HL-60; CCL-240) and its multidrug resistant derivative (HL-60/MX2; CRL-2257) were purchased from ATCC and maintained in appropriate culture media. The cells were cultured in an incubator at 37° C. in 5% CO2 and 95% humidified air.
(§5) For cell growth inhibition assays, MES-SA and MES-SA/Dx5 cells were both seeded at 3×10^3 cells/well in 90 μl complete media into 96 well (Corning; 3904) black-walled, clear-bottom tissue culture plates and the plates were incubated overnight to allow cells to establish and enter log phase growth. HL-60 and HL-60/MX2 cells were both seeded at 5×10^4 cells/well in 90 μl complete media into 96 well plates on the day of compound addition. 20 mM stock solutions of the compounds were prepared in 100% DMSO and stored at −80° C. […] Ten μl volumes of the 10× serial dilutions were added to the test wells in triplicate and the plates returned to the incubator for 48 hours. The final concentration of DMSO was 0.25% in all samples.
(§6) Following 48 hours of drug exposure, 10 μl of 0.2 mg/ml resazurin (obtained from Sigma-Aldrich Chemical Co.) in Mg^2+, Ca^2+ free phosphate buffered saline was added to each well and the plates were returned to the incubator for 3-6 hours. […] Resazurin dye in medium without cells was used to determine the background, which was subtracted from the data for all experimental wells.
(§7) HL-60/MX2 is a multidrug resistant tumor cell line derived from the human promyelocytic leukemia cell line, HL-60 and expresses reduced topoisomerase II activity. The data presented in Table 20 summarize the growth inhibitory effects of NPI-2421, NPI-2463, NPI-2503, NPI-2504 and NPI-2506 against HL-60 and its multidrug resistant derivative HL-60/MX2. Mitoxantrone, the topoisomerase II targeting agent was included as a control.

[4] = tested on: MDA-MB-231 breast adenocarcinoma; test: as above; type: cell-based; conditions: Homo sapiens, 48 hours, mean ± SD where n ≧ 3
Description: (§8) The growth inhibitory activity of NPI-2421, NPI-2463, NPI-2503 and NPI-2504 were determined against selected human (colorectal adenocarcinoma, HT-29; breast adenocarcinoma, MDA-MB-231; non-small cell lung carcinoma, NCI-H292 and prostate carcinomas, PC-3 and DU 145) and mouse (melanoma, B16-F10) tumor cell lines.
(§9) HT-29 (HTB-38), MDA-MB-231 (HTB-26), NCI-H292 (CRL-1848), B16-F10 (CRL-6475), PC-3 (CRL-1435) and DU 145 (HTB-81) cells were all purchased from the ATCC. The cell lines were maintained in their respective ATCC recommended culture media and cultured in an incubator at 37° C. in 5% CO2 and 95% humidified air.
(§10) 20 mM stock solutions of compounds were prepared in 100% DMSO and stored at −80° C. 10× concentrated serial dilutions of the compounds were prepared in B16-F10 cell culture medium for final concentrations ranging from 20 μM to […]. Ten μl volumes of the 10× serial dilutions were added to the test wells in triplicate and the plates returned to the incubator for 48 hours. The final concentration of DMSO was 0.25% in all samples.
as §6

B16-F10 melanoma = test: as above; type: cell-based; conditions: Mus musculus, 48 hours, mean ± SD where n ≧ 3
Description: as §8, §9, §10, §6

PC-3 prostate carcinoma = test: as above; type: cell-based; conditions: Homo sapiens, 48 hours, mean ± SD where n ≧ 3, ** n = 1
Description: as §8, §9, §10, §6

[5] = tested on: NCI-H292 non-small cell lung carcinoma; test: as above; type: cell-based; conditions: Homo sapiens, 48 hours, mean ± SD where n ≧ 3, ** n = 1
Description: as §8, §9, §10, §6

[6] = tested on: HT-29 colorectal adenocarcinoma; test: as above; type: cell-based; conditions: Homo sapiens, 48 hours, mean ± SD where n ≧ 3
Description: as §8, §9, §10, §6

[7] = tested on: MES-SA human uterine sarcoma; test: as above; type: cell-based; conditions: mean ± standard deviation of three independent experiments
Description: as §4, §5, §6
(§11) The multidrug resistant MES-SA/Dx5 tumor cell line was derived from the human uterine sarcoma MES-SA tumor cell line and expresses elevated P-Glycoprotein (P-gp), an ATP dependent efflux pump. The data in Table 19 summarize the growth inhibitory effects of NPI-2421, NPI-2463, NPI-2503, NPI-2504 and NPI-2506 against MES-SA and its multidrug resistant derivative MES-SA/Dx5. Paclitaxel, a known substrate of the P-gp pump was included as a control.

[8] = tested on: HL-60/MX2 multidrug resistant; test: as above; type: cell-based, human; conditions: for EC50: Homo sapiens, HL60/MX2, HL-60/MX2, mean values of two independent experiments; for cytotoxic activity against both HL-60 and HL-60/MX2: in words; for Fold change: ratio of EC50 values (HL-60/MX2:HL-60)
Description: as §4, §5, §6, §7

[9] = tested on: HT-29 human colorectal carcinoma cells; test: Cell growth inhibition assay, resazurin (Table 3.2); type: cell-based; conditions: Table 3.2, HT-29 cells, read-out: EC50 (M) Mean
Description: The cytotoxic effects of various derivatives of dehydrophenylahistin against HT-29 human colorectal carcinoma cells were determined.
HT-29 cells (ATCC; HTB-38) were maintained in ATCC recommended culture media and cultured in an incubator at 37° C. in 5% CO2 and 95% humidified air.
For cell growth inhibition assays, HT-29 cells were seeded at 5×10^3 cells/well in 90 μl complete media into a Corning 3904 black-walled, clear-bottom tissue culture plates and the plates were incubated overnight to allow cells to establish and enter log phase growth. 20 mM stock solutions of compounds were prepared in 100% DMSO and stored at −80° C. 10× concentrated serial dilutions of the compounds were prepared in culture medium for final concentrations ranging from 20 μM to […]. Ten μl volumes of the 10× serial dilutions were added to the test wells in triplicate and the plates returned to the incubator for 48 hours. The final concentration of DMSO was 0.25% in all samples.
Following 48 hours of drug exposure, 10 μl of 0.2 mg/ml resazurin (obtained from Sigma-Aldrich Chemical Co.) in Mg^2+, Ca^2+ free phosphate buffered saline was added to each well and the plates were returned to the incubator for 3-4 hours. […] Resazurin dye in medium without cells was used to determine the background, which was subtracted from the data for all experimental wells.

[10] = tested on: MES-SA/Dx5 multidrug resistant; test: Cell growth inhibition assay, resazurin (Example 11); type: cell-based, human; conditions: for EC50: Homo sapiens, MES-SA/Dx5, mean ± standard deviation of three independent experiments; for cytotoxic activity against both MES-SA and MES-SA/Dx5: in words; for Fold change: ratio of EC50 values (MES-SA/Dx5:MES-SA)
Description: as §4, §5, §6, §11

[11] = tested on: PC-3 prostatic adenocarcinoma cells; test: Tumor cytotoxicity assay, resazurin fluorescence, 48 h (Example 6); type: cell-based, human; conditions: Homo sapiens, read-out: EC50 (nM) PC-3
Description: 10× concentrated serial dilutions of the two compounds were prepared in appropriate culture medium for final concentrations ranging from 2.0×10^−5 M to 2.0×10^−10 M. Ten μl volumes of the 10× serial dilutions were added to the test wells in triplicate and the plates returned to the incubator for 48 hours.
Following 48 hours of drug exposure 10 μl of 0.2 mg/ml resazurin (obtained from Sigma-Aldrich Chemical Co.) in Mg^2+, Ca^2+ free PBS was added to each well and the plates were returned to the incubator for 3-4 hours. […] Resazurin dye without cells was used to determine the background, which was subtracted from the data for all experimental wells. The data were analyzed using Prism software (GraphPad Software).
PC-3, a human prostate adenocarcinoma, was maintained in F12K complete medium (F12K medium supplemented with 10% FBS; 2 mM Glutamine; 1% HEPES; and Pen/Strep at 100 IU/ml and 100 µg/ml, respectively).

## C=CC(C)(C)c1[nH]cnc1/C=C1\NC(=O)[C@H](Cc2ccccc2)NC1=O [(−)-Phenylahistin, reference compound]
[1]
  antifungal potency versus the sensitive T. mentagrophytes isolate: weaker but more comparable to the others
Aspergillus fumigatus; A. fumigatus isolate #1
  MIC: > 16 µg/mL
Aspergillus fumigatus; A. fumigatus isolate #2
  MIC: > 16 µg/mL
Candida albicans
  MIC: > 70 µg/mL
Candida glabrata
  MIC: > 70 µg/mL
Trichophyton rubrum
  antifungal potency versus T. rubrum: significantly less potent than the other compounds
HT-29 human colon cells; HT-29, Table 2, read-out: EC50 (nM) HT-29
  EC50: 1600 nM
[2]
  IC50: 833 ± 153 nM

## CC(C)(C)c1ocnc1/C=c1\[nH]c(=O)/c(=C/c2cc(F)cc(F)c2F)[nH]c1=O [Compound 2503, tBu-oxadelta-PLH-2,3,5-trifluoro]
[3]
  EC50: 28 nM
[4]
  EC50: 21 nM
B16-F10 melanoma
  EC50: 16 ± 2 nM
PC-3 prostate carcinoma
  EC50: > 2000 nM
[5]
  EC50: 52 nM
[6]
  EC50: 17 nM
[7]
  EC50: 13 ± 3 nM
[8]
  EC50: 19 nM
  cytotoxic activity against both HL-60 and HL-60/MX2: retained cytotoxic activity
  Fold change: 0.7
[9]
  EC50: 1.14e-08 M
[10]
  EC50: 13 ± 3 nM
  cytotoxic activity against both MES-SA and MES-SA/Dx5: retained equivalent cytotoxic activity
  Fold change: 1.0

## CC(C)(C)c1ocnc1/C=c1\[nH]c(=O)/c(=C/c2c(F)c(F)cc(F)c2F)[nH]c1=O [Compound 2504, tBu-oxadelta-PLH-2,3,5,6-tetrafluoro]
[3]
  EC50: 30 nM
[4]
  EC50: 17 nM
B16-F10 melanoma
  EC50: 14 ± 3 nM
PC-3 prostate carcinoma
  EC50: > 2000 nM
[5]
  EC50: 42 nM
[6]
  EC50: 11 nM
[7]
  EC50: 13 ± 3 nM
[8]
  EC50: 13 nM
  cytotoxic activity against both HL-60 and HL-60/MX2: retained cytotoxic activity
  Fold change: 0.4
[9]
  EC50: 1.48e-08 M
[10]
  EC50: 14 ± 3 nM
  cytotoxic activity against both MES-SA and MES-SA/Dx5: retained equivalent cytotoxic activity
  Fold change: 1.1

## CC(C)(C)c1ocnc1/C=c1\[nH]c(=O)/c(=C/c2c(F)ccc(F)c2F)[nH]c1=O [Compound 2506, tBu-oxadelta-PLH-2,3,6-trifluoro]
[3]
  EC50: 32 nM
[7]
  EC50: 22 ± 3 nM
[8]
  EC50: 31 nM
  cytotoxic activity against both HL-60 and HL-60/MX2: retained cytotoxic activity
  Fold change: 1.0
[9]
  EC50: 2.4e-08 M
[10]
  EC50: 27 ± 6 nM
  cytotoxic activity against both MES-SA and MES-SA/Dx5: retained equivalent cytotoxic activity
  Fold change: 1.2

## CC(C)(C)c1[nH]cnc1/C=c1\[nH]c(=O)/c(=C/c2ccccc2)[nH]c1=O [tBu-ΔPLH]
HT-29 human colon cells; HT-29, read-out: EC50 (nM) HT29, Table 1
  EC50: 13 nM
[11]
  EC50: 1 nM

Reference: patent US8129527B2, “Analogs of dehydrophenylahistins and their therapeutic use” (Nereus Pharmacuticals, Inc., priority 2006, dated 2012)
